Assay results from paper PMC5833756, “A novel ruthenium complex with xanthoxylin induces S-phase arrest and causes ERK1/2-mediated apoptosis in HepG2 cells through a p53-independent pathway” (Cell Death & Disease, 2018).
pIC50: −log10 of the molar value. Read-outs that look alike come from different tables or passages of the source. Marks after values point to notes of the source that are not given here.

How the values were obtained:
[1] = system: HepG2 cells; format: cell-based, human; conditions: DOX 2 µM, OXA 10 µM, RCX 12 µM
Experimental: Briefly, the cells were harvested in a permeabilization solution containing 0.1% Triton X-100, 2 µg/mL PI, 0.1% sodium citrate and 100 µg/mL RNAse (all from Sigma-Aldrich) and incubated in the dark for 15 min at room temperature. Finally, cell fluorescence was measured by flow cytometry with a BD LSRFortessa cytometer using BD FACSDiva Software (BD Biosciences) and FlowJo Software 10 (FlowJo Lcc; Ashland, OR, USA). Ten thousand events were evaluated per experiment, and cellular debris was omitted from the analysis.

[2] = system: K-562; format: cell-based, human
[3] = system: B16-F10; format: cell-based, mouse
[4] = system: calf thymus DNA; test: DNA intercalation assay (ethidium bromide displacement); format: binding; conditions: 20 μM, cell-free, 15 min
Experimental: DNA intercalation was assessed by examining the ability of the complex to displace ethidium bromide from ctDNA (Sigma-Aldrich)[36]. […] After a 15 min of incubation at room temperature, fluorescence was measured using the excitation and emission wavelengths of 320 nm and 600 nm, respectively, using the Spectramax Microplate Reader (Molecular Devices).

[5] = system: ACP-03; format: cell-based, human
[6] = system: HT-29; format: cell-based, human
[7] = system: HCT116; format: cell-based, human
[8] = system: MRC-5; format: cell-based; conditions: MRC5; MRC-5 (human lung fibroblast, non-cancer), 72 h
[9] = system: ACP-02; format: cell-based, human
[10] = system: HL-60; format: cell-based, human
[11] = system: HepG2 cells; test: Trypan blue exclusion assay; format: cell-based, human; conditions: HepG2, 24 h; DOX 2 µM, OXA 10 µM
[12] = system: HepG2; format: cell-based, human
[13] = system: BAD KO SV40 MEF; format: cell-based, mouse; conditions: Mus musculus, 72 h
[14] = system: SCC-15; format: cell-based, human
[15] = system: WT SV40 MEF; format: cell-based, mouse; conditions: Mus musculus, 72 h
[16] = system: SCC-9; format: cell-based, human
[17] = system: SCC-25; format: cell-based, human
[18] = system: HaCAT; format: cell-based; conditions: HaCAT (human keratinocyte, non-cancer), 72 h
[19] = i.p. 21 days, DOX 0.3 mg/kg, 5-FU 10 mg/kg, RCX 2.5 mg/kg
[20] = peripheral blood, i.p. 21 days, DOX 0.3 mg/kg, 5-FU 10 mg/kg, RCX 2.5 mg/kg
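For Final body weight in this document: mice bearing subcutaneous HepG2 xenografts, given intraperitoneal doses once daily for 21 days, weighed at start and end, blood leukocytes counted by light microscopy on day 22.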
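For Initial body weight in this document: mice bearing subcutaneous HepG2 xenografts, given intraperitoneal doses once daily for 21 days, weighed at start and end, blood leukocytes counted by light microscopy on day 22.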
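For Survival in this document: mice bearing subcutaneous HepG2 xenografts, given intraperitoneal doses once daily for 21 days, weighed at start and end, blood leukocytes counted by light microscopy on day 22.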
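For lung histopathological characteristics in this document: mice bearing subcutaneous HepG2 xenografts, given intraperitoneal doses once daily for 21 days, weighed at start and end, blood leukocytes counted by light microscopy on day 22.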

COc1cccc2c1C(=O)c1c(O)c3c(c(O)c1C2=O)C[C@@](O)(C(=O)CO)C[C@@H]3O[C@H]1C[C@H](N)[C@H](O)[C@H](C)O1 [DOX, doxorubicin]
DNA content G0/G1 ([1]; HepG2, 12 h): 51.9 ± 4.8% | DNA content G2/M ([1]; HepG2, 12 h): 22.6 ± 2.6% | DNA content S ([1]; HepG2, 12 h): 6.9 ± 0.1% | DNA content Sub-G0/G1 ([1]; HepG2, 12 h): 13.4 ± 1.2 % | DNA content G0/G1 ([1]; HepG2, 24 h): 20.9 ± 3.3 % | DNA content G2/M ([1]; HepG2, 24 h): 66.9 ± 5.5 % | DNA content S ([1]; HepG2, 24 h): 8.9 ± 2.3 % | DNA content Sub-G0/G1 ([1]; HepG2, 24 h): 16.8 ± 4.3 % | DNA content G0/G1 ([1]; HepG2, 48 h): 34.6 ± 2.7 % | DNA content G2/M ([1]; HepG2, 48 h): 31.1 ± 3.3 % | DNA content S ([1]; HepG2, 48 h): 9.1 ± 1.9% | DNA content Sub-G0/G1 ([1]; HepG2, 48 h): 20.9 ± 1.0 % | DNA content G0/G1 ([1]; HepG2, 72 h): 31.6 ± 5.1 % | DNA content G2/M ([1]; HepG2, 72 h): 16.3 ± 1.1% | DNA content S ([1]; HepG2, 72 h): 12.5 ± 1.1% | DNA content Sub-G0/G1 ([1]; HepG2, 72 h): 46.6 ± 2.8 % | selectivity index (SI) ([2]; IC50 HaCAT / IC50 K-562): 0.1 | selectivity index (SI) ([2]; IC50 MRC5 / IC50 K-562): 1.3 | selectivity index (SI) ([2]; IC50 PBMC / IC50 K-562): 5.2 | pIC50 ([2]; K562, K-562 (human chronic myelogenous leukemia), 72 h): 6.00 | lung histopathological characteristics (atelectasis, hemorrhage, inflammation, congestion, doxorubicin 0.3 mg/kg, RCX both doses, 21 days): more pronounced in the doxorubicin and RCX (both doses) groups than in the other groups | Initial body weight (before treatment, DOX 0.3 mg/kg, 5-FU 10 mg/kg, RCX 2.5 mg/kg groups): 22.3 ± 0.4 g | Final body weight [19]: 19.5 ± 0.6 g | Survival [19]: 14/14 | Differential leukocytes: Eosinophils [20]: 1.0% | Differential leukocytes: Lymphocytes [20]: 49.3% | Differential leukocytes: Monocytes [20]: 1.0% | Differential leukocytes: Neutrophils [20]: 48.8% | Erythrocytes [20]: 8.9 ± 0.7 10^6cells/μL | Total leukocytes [20]: 1.5 ± 0.2* 10^3cells/μL | selectivity index (SI) ([3]; IC50 HaCAT / IC50 B16-F10): 0.2 | selectivity index (SI) ([3]; IC50 MRC5 / IC50 B16-F10): 2.2 | selectivity index (SI) ([3]; IC50 PBMC / IC50 B16-F10): 8.7 | pIC50 ([3]; Mus musculus, B16-F10 (murine melanoma), 72 h): 6.22 | displacement of ethidium bromide from ctDNA (fluorescence) [4]: significantly reduced the fluorescence intensity | pIC50 ([5]; ACP-03 (human gastric adenocarcinoma), 72 h): 5.62 | selectivity index (SI) ([5]; IC50 HaCAT / IC50 ACP-03): 0.04 | selectivity index (SI) ([5]; IC50 MRC5 / IC50 ACP-03): 0.5 | selectivity index (SI) ([5]; IC50 PBMC / IC50 ACP-03): 2.2 | pIC50 ([6]; HT-29 (human colon adenocarcinoma), 72 h): 6.52 | selectivity index (SI) ([6]; IC50 HaCAT / IC50 HT-29): 0.3 | selectivity index (SI) ([6]; IC50 MRC5 / IC50 HT-29): 4.3 | selectivity index (SI) ([6]; IC50 PBMC / IC50 HT-29): 17.3 | pIC50 ([7]; HCT-116, HCT116 (human colon carcinoma), 72 h): 6.70 | selectivity index (SI) ([7]; IC50 HaCAT / IC50 HCT116): 0.5 | selectivity index (SI) ([7]; IC50 MRC5 / IC50 HCT116): 6.5 | selectivity index (SI) ([7]; IC50 PBMC / IC50 HCT116): 26 | pIC50 [8]: 5.89 | pIC50 ([9]; ACP-02 (human gastric adenocarcinoma), 72 h): 5.17 | selectivity index (SI) ([9]; IC50 HaCAT / IC50 ACP-02): 0.02 | selectivity index (SI) ([9]; IC50 MRC5 / IC50 ACP-02): 0.2 | selectivity index (SI) ([9]; IC50 PBMC / IC50 ACP-02): 0.8 | pIC50 ([10]; HL-60 (human promyelocytic leukemia), 72 h): 6.70 | selectivity index (SI) ([10]; IC50 HaCAT / IC50 HL-60): 0.5 | selectivity index (SI) ([10]; IC50 MRC5 / IC50 HL-60): 6.5 | selectivity index (SI) ([10]; IC50 PBMC / IC50 HL-60): 26 | change in the number of viable cells [11]: reduced the number of viable cells | pIC50 ([12]; HepG2 (human hepatocellular carcinoma), monolayer, 72 h): 5.89 | selectivity index (SI) ([12]; IC50 HaCAT / IC50 HepG2): 0.1 | selectivity index (SI) ([12]; IC50 MRC5 / IC50 HepG2): 1 | selectivity index (SI) ([12]; IC50 PBMC / IC50 HepG2): 4 | pIC50 [13]: 6.39 | selectivity index (SI) ([14]; IC50 HaCAT / IC50 SCC-15): 0.1 | selectivity index (SI) ([14]; IC50 MRC5 / IC50 SCC-15): 0.9 | selectivity index (SI) ([14]; IC50 PBMC / IC50 SCC-15): 3.5 | pIC50 ([14]; SCC-15 (human oral squamous cell carcinoma), 72 h): 5.82 | pIC50 [15]: 7.40 | selectivity index (SI) ([16]; IC50 HaCAT / IC50 SCC-9): 0.04 | selectivity index (SI) ([16]; IC50 MRC5 / IC50 SCC-9): 0.5 | selectivity index (SI) ([16]; IC50 PBMC / IC50 SCC-9): 2 | pIC50 ([16]; SCC-9 (human oral squamous cell carcinoma), 72 h): 5.59 | selectivity index (SI) ([17]; IC50 HaCAT / IC50 SCC-25): 0.1 | selectivity index (SI) ([17]; IC50 MRC5 / IC50 SCC-25): 1.3 | selectivity index (SI) ([17]; IC50 PBMC / IC50 SCC-25): 5.2 | pIC50 ([17]; SCC-25 (human oral squamous cell carcinoma), 72 h): 6.00 | pIC50 [18]: 7.00
